Assay results reported in EP4667466A1, “PROTAC DEGRADERS OF MLLT1 AND/OR MLLT3” (priority 2024, dated 2025).

Target: T1, MLLT1 (Homo sapiens, UniProt Q03111)
T1 construct: endogenous in cells; host or cells: MV4-11 (ATCC CRL-9591)
T1 sequence (Q03111 1-559): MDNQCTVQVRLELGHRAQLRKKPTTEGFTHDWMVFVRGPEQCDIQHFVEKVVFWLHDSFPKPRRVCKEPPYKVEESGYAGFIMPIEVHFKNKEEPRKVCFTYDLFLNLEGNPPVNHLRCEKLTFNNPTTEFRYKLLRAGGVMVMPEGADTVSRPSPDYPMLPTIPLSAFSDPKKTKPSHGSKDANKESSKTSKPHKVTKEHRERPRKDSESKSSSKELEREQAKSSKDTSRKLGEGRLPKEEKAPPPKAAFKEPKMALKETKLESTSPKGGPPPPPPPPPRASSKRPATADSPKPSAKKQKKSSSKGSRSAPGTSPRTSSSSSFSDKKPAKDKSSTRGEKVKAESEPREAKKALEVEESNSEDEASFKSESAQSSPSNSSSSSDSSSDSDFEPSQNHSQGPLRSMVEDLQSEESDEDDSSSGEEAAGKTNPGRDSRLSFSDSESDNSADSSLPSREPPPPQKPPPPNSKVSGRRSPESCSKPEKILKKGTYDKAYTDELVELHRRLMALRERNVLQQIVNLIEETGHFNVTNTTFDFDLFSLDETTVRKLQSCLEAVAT
Assay: MLLT1 degradation assay (JESS automated chemiluminescent detection) in MV4-11 cells
Format: cell-based
Conditions: 24h, with respect to DMSO control
Protocol: MLLT1 degradation efficacy of compounds was tested in an automated chemiluminescent detection system (JESS, Cat# 004-650). MV4-11 (#CRL-9591, ATCC) cells were seeded at a density of 1.2 million cells/well in a non-treated 6-well cell culture plate in 2.4 mL of complete medium (IMDM + 10% FBS + 1X Penicillin-Streptomycin). 10 mM DMSO stocks were prepared, and cells were treated with three concentrations of test compounds viz. 1000, 100 and 10 nM at a final DMSO concentration of 0.1% and incubated for 24h at 37°C, 5% CO2. Post incubation, cells were centrifuged, washed with HBSS and lysed in 70 uL of RIPA buffer supplemented with Protease inhibitors (sc-24948; Santa Cruz). Subsequently, protein estimation was done using BCA protein assay kit (23225; Pierce). 4 ug protein lysate (4 uL of 1ug/uL lysate) was loaded into each well of the JESS cartridge (SM-WO01; Bio-techne) and the JESS run was performed using 1:900 dilution of anti-human MLLT1 antibody (14893; Cell signaling technology) and 1:1200 dilution of anti-human GAPDH antibody (2118; Cell signaling technology) with anti-rabbit secondary detection module (DM-001; Bio-Techne). Post run, data were analysed using "Compass for SW" software for chemiluminescent detection. The peak area for each band was used for the calculation of MLLT1 degradation with respect to DMSO control. Data is shown as "MLLT1 % degradation". Category A: A ≥ 75% degradation Category B: 50% ≤ B < 75% degradation Category C: 25% ≤ C < 50% degradation Category D: D < 25% degradation Table 1

SMILES	inhibition at 0.01 µM [%]	inhibition at 0.1 µM [%]	inhibition at 1 µM [%]
Cc1nn(CCCC2CCN(c3cccc4c3C(=O)N(C3CCC(=O)NC3=O)C4=O)CC2)c2cc(C(=O)Nc3cc4[nH]c([C@H]5CCCN5C)cc4cn3)ccc12 (stereo partly drawn) [Example 27, 1-(3-(1-(2-(2,6-dioxopiperidin-3-yl)-1,3-dioxoisoindolin-4-yl)piperidin-4-yl)propyl)-3-methyl-N-(2-((R)-1-methylpyrrolidin-2-yl)-1H-pyrrolo[3,2-c]pyridin-6-yl)-1H-indazole-6-carboxamide]	≥ 75	≥ 75	≥ 75
Cc1nn(CCCCCC#Cc2cccc(C(=O)NC3CCC(=O)NC3=O)c2F)c2cc(C(=O)Nc3cc4[nH]c([C@H]5CCCN5C)cc4cn3)ccc12 (stereo partly drawn) [Example 34, 1-(7-(3-((2,6-dioxopiperidin-3-yl)carbamoyl)-2-fluorophenyl)hept-6-yn-1-yl)-3-methyl-N-(2-((R)-1-methylpyrrolidin-2-yl)-1H-pyrrolo[3,2-c]pyridin-6-yl)-1H-indazole-6-carboxamide]	< 25	50 to 75	≥ 75
Cc1nn(CCCCCCCCNc2cccc3c2C(=O)N(C2CCC(=O)NC2=O)C3=O)c2cc(C(=O)Nc3cc4[nH]c([C@@H]5CCCN5C)cc4cn3)ccc12 (stereo partly drawn) [Example 4, 1-(8-{[2-(2,6-dioxopiperidin-3-yl)-1,3-dioxoisoindol-4-yl]amino}octyl)-3-methyl-N-{2-[(2S)-1-methylpyrrolidin-2-yl]-1H-pyrrolo [3,2-c]pyridin-6-yl}indazole-6-carboxamide]	< 25	< 25	50 to 75
Cc1nn(CCCCCN2CCN(c3cc4c(cc3F)C(=O)N(C3CCC(=O)NC3=O)C4=O)CC2)c2cc(C(=O)Nc3cc4[nH]c([C@H]5CCCN5C)cc4cn3)ccc12 (stereo partly drawn) [Example 23, 1-(5-(4-(2-(2,6-dioxopiperidin-3-yl)-6-fluoro-1,3-dioxoisoindolin-5-yl)piperazin-1-yl)pentyl)-3-methyl-N-(2-((R)-1-methylpyrrolidin-2-yl)-1H-pyrrolo[3,2-c]pyridin-6-yl)-1H-indazole-6-carboxamide]	≥ 75	≥ 75	≥ 75
Cc1c(OCCCCCCn2nc(C)c3ccc(C(=O)Nc4cc5[nH]c([C@H]6CCCN6C)cc5cn4)cc32)cccc1N1CCC(=O)NC1=O [Example 10, 1-16-[3-(2,4-dioxo-1,3-diazinan-1-yl)-2-methylphenoxy]hexyll-3-methyl-N-{2-[(2R)-1-methylpyrrolidin-2-yl]-1H-pyrrolo [3,2-c]pyridin-6-yl}indazole-6-carboxamide]	25 to 50	25 to 50	25 to 50
Cc1nn(CCCCN2CCN(c3ccc4c(c3)C(=O)N(C3CCC(=O)NC3=O)C4=O)CC2)c2cc(C(=O)Nc3cc4[nH]c([C@@H]5CCCN5C)cc4cn3)ccc12 (stereo partly drawn) [Example 20, 1-(4-{4-[2-(2,6-dioxopiperidin-3-yl)-1,3-dioxoisoindol-5-yl]piperazin-1-yl}butyl)-3-methyl-N-{2-[(2S)-1-methylpyrrolidin-2-yl]-1H-pyrrolo[3,2-c]pyridin-6-yl}indazole-6-carboxamide]	25 to 50	25 to 50	≥ 75
Cc1c(C#CCCCCCn2nc(C)c3ccc(C(=O)Nc4cc5[nH]c([C@H]6CCCN6C)cc5cn4)cc32)cccc1C(=O)NC1CCC(=O)NC1=O (stereo partly drawn) [Example 35, 1-(7-(3-((2,6-dioxopiperidin-3-yl)carbamoyl)-2-methylphenyl)hept-6-yn-1-yl)-3-methyl-N-(2-((R)-1-methylpyrrolidin-2-yl)-1H-pyrrolo[3,2-c]pyridin-6-yl)-1H-indazole-6-carboxamide]	25 to 50	< 25	50 to 75

The remaining lines, values ahead:

inhibition at 0.01 µM [%]	inhibition at 0.1 µM [%]	inhibition at 1 µM [%]	SMILES
≥ 75	≥ 75	≥ 75	Cc1nn(CCCCCCCC#Cc2cccc3c2CN(C2CCC(=O)NC2=O)C3=O)c2cc(C(=O)Nc3cc4[nH]c([C@H]5CC6(CC6)CN5C)cc4cn3)ccc12 (stereo in doubt) [Example 56, 1-(9-(2-(2,6-dioxopiperidin-3-yl)-1-oxoisoindolin-4-yl)non-8-yn-1-yl)-3-methyl-N-(2-((rel-R)-5-methyl-5-azaspiro[2.4]heptan-6-yl)-1H-pyrrolo[3,2-c]pyridin-6-yl)-1H-indazole-6-carboxamide]
25 to 50	50 to 75	≥ 75	Cc1nn(CCCCCCCC#Cc2cccc(C(=O)N[C@H]3CCC(=O)NC3=O)c2F)c2cc(C(=O)Nc3cc4[nH]c([C@H]5CCCN5C)cc4cn3)ccc12 [Example 51, 1-(9-(3-(((S)-2,6-dioxopiperidin-3-yl)carbamoyl)-2-fluorophenyl)non-8-yn-1-yl)-3-methyl-N-(2-((R)-1-methylpyrrolidin-2-yl)-1H-pyrrolo[3,2-c]pyridin-6-yl)-1H-indazole-6-carboxamide]
≥ 75	≥ 75	≥ 75	Cc1nn(CCCCCCCC#Cc2cccc3c2CN(C2CCC(=O)NC2=O)C3=O)c2cc(C(=O)Nc3cc4[nH]c([C@H]5CCCN5C)cc4cn3)c(F)cc12 (stereo partly drawn) [Example 58, 1-(9-(2-(2,6-dioxopiperidin-3-yl)-1-oxoisoindolin-4-yl)non-8-yn-1-yl)-5-fluoro-3-methyl-N-(2-((R)-1-methylpyrrolidin-2-yl)-1H-pyrrolo[3,2-c]pyridin-6-yl)-1H-indazole-6-carboxamide]
≥ 75	≥ 75	50 to 75	Cc1nn(C2CCN(CC#Cc3cccc4c3CN(C3CCC(=O)NC3=O)C4=O)CC2)c2cc(C(=O)Nc3cc4[nH]c([C@H]5CCCN5C)cc4cn3)ccc12 (stereo partly drawn) [Example 68, 1-(1-(3-(2-(2,6-dioxopiperidin-3-yl)-1-oxoisoindolin-4-yl)prop-2-yn-1-yl)piperidin-4-yl)-3-methyl-N-(2-((R)-1-methylpyrrolidin-2-yl)-1H-pyrrolo[3,2-c]pyridin-6-yl)-1H-indazole-6-carboxamide]
≥ 75	≥ 75	≥ 75	Cc1nn(CCCCCCCC#Cc2cccc3c2CN(C2CCC(=O)NC2=O)C3=O)c2cc(C(=O)Nc3cc4[nH]c([C@H]5CCCN5C)c(Cl)c4cn3)ccc12 (stereo partly drawn) [Example 53, N-(3-chloro-2-((R)-1-methylpyrrolidin-2-yl)-1H-pyrrolo[3,2-c]pyridin-6-yl)-1-(9-(2-(2,6-dioxopiperidin-3-yl)-1-oxoisoindolin-4-yl)non-8-yn-1-yl)-3-methyl-1H-indazole-6-carboxamide]
≥ 75	≥ 75	≥ 75	Cc1nn(CCCCCCCC#Cc2ccc(F)c3c2CN(C2CCC(=O)NC2=O)C3=O)c2cc(C(=O)Nc3cc4[nH]c([C@H]5CCCN5C)cc4cn3)ccc12 (stereo partly drawn) [Example 52, 1-(9-(2-(2,6-dioxopiperidin-3-yl)-7-fluoro-1-oxoisoindolin-4-yl)non-8-yn-1-yl)-3-methyl-N-(2-((R)-1-methylpyrrolidin-2-yl)-1H-pyrrolo[3,2-c]pyridin-6-yl)-1H-indazole-6-carboxamide]
≥ 75	≥ 75	≥ 75	Cc1nn(CCOCCCCC#Cc2cccc3c2CN(C2CCC(=O)NC2=O)C3=O)c2cc(C(=O)Nc3cc4[nH]c([C@H]5CCCN5C)cc4cn3)ccc12 (stereo partly drawn) [Example 50]
< 25	50 to 75	≥ 75	Cc1nn(CCCCCCCC#Cc2cccc(N3CCC(=O)NC3=O)c2F)c2cc(C(=O)Nc3cc4[nH]c([C@H]5CCCN5C)cc4cn3)ccc12 [Example 63, (R)-1-(9-(3-(2,4-dioxotetrahydropyrimidin-1(2H)-yl)-2-fluorophenyl)non-8-yn-1-yl)-3-methyl-N-(2-(1-methylpyrrolidin-2-yl)-1H-pyrrolo [3,2-c]pyridin-6-yl)-1H-indazole-6-carboxamide]
